Assay results: patent US6887882B2, “Pharmaceutical compositions comprising chelidonine or derivatives thereof” (priority 2002, dated 2005)
Read-outs that look alike come from different tables or passages of the source.

What was measured:
[1] = molecular target: T1, hKv1.5 channel (Homo sapiens, UniProt P22460); assay: Block of hKv1.5 channel currents expressed in Ltk-cells (whole cell patch clamp); type: cell-based; settings: for Hill value: from concentration-response curves using the Hill equation; for IC50 / type of hKv1.5 block / effect on the hKv1.5 channel currents: hKv1.5 expressed in Ltk-cells; for IC50: steady-state current at end of +50 mV depolarizing pulse, holding -80 mV; for type of hKv1.5 block: FIGS. 1a to 1e; for effect on the hKv1.5 channel currents: FIGS. 1a to 1d
T1 construct: expressed in transfected cells; host or cells: mouse Ltk- cells (pMSVneo vector, G418 selection)
T1 sequence (P22460 whole entry): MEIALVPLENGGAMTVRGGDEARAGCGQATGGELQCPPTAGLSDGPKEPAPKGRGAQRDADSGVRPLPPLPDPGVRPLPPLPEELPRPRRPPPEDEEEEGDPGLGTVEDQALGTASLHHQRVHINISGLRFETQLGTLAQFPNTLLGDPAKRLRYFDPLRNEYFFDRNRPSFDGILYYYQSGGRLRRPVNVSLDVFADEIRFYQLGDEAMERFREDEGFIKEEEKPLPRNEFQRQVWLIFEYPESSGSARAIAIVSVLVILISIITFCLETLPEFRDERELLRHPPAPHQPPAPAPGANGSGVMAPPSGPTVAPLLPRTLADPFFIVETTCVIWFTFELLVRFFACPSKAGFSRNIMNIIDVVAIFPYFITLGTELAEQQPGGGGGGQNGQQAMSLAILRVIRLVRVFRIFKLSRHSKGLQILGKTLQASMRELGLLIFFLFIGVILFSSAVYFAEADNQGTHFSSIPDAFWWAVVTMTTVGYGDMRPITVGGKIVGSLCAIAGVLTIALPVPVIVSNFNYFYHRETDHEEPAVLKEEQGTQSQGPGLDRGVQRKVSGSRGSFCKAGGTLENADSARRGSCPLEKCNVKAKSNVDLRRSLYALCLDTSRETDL
Experimental: Cell line selectively expressing a specific cardiac K^+ channel gene was prepared according to the method described in the thesis (Yang, et al., Inhibition of cardiac potassium currents by the vesnarinone analog OPC-18790: comparison with quinidine and dofetilide. J Pharmacol Exp Ther. 1997, 280: 1170-1175; Kwak, et al., Phosphorylation is required for alteration of Kv1.5 K^+ channel function by the Kvbeta 1.3 subunit. J Biol Chem 1999, 274: 25355-25361).
First, cDNAs for human cardiac K^+ channel genes such as hKv 1.5 and HERG were subcloned into pMSVneo which contain dexamethasone-inducible murine mammary tumor virus promoter controlling transcription of the inserted cDNA and a gene conferring neomycin resistance driven by the SV40 early promotor. The cDNA-containing expression vector was transfected into mouse Ltk-cells with lipofectamine. After 24 hours, the cells selection with […] of G418 was performed for 2 weeks or until discrete foci formed. Individual foci were isolated, maintained in 0.25 μg/ml of G418, and screened by Norhtern analysis and electrophysiological analysis. Transfected cells were cultured in Dulbeco's modified Eagle medium (DMEM) supplemented with 10% horse serum and 0.25 μg/ml of G418, under 5% CO2. Transiently transfected cells were cultured in DMEM media supplemented with only 10% horse serum, differently from stable cell lines.
Currents in human atrial myocytes and cell lines were recorded by using the whole cell configuration of the gigaohm-seal patch clamp techniques (Kwak, et al., Phosphorylation is required for alteration of Kv1.5 K^+ channel function by the Kvbeta 1.3 subunit. J Biol Chem 1999, 274: 25355-25361). First, electrical signals were amplified with a patch clamp amplifier (Axon Instruments, Axopatch-1D, Foster, USA). Currents were digitized by a signal converter (Digidata 1200, Axon Instruments) and stored on the hard disk of a computer. The micropipette with a resistance of 1˜2MΩ (Kimax-51, 1.5=14 1.8×10 mm) for current recording, was pulled out by a 2-stage pipette puller (Narishige, PP-83). The intracellular pipette-filling solution for whole cell mode contained 100 mM KCl, 10 mM HEPES, 5 mM K4BAPTA, 5 mM K2ATP and 1 mM MgCl2 (pH 7.2). The extracellular solution contained 130 mM NaCl, 4 mM KCl, 1.8 mM CaCl2, 1 mM MgCl2, 10 mM HEPES and 10 mM glucose (pH 7.35).
The current traces were recorded with a depolarizing pulse of +50 mV from a holding potential of −80 mV, followed by a repolarizing pulse of −50 mV in the Ltk-cells. To observe the concentration-dependent block of hKv1.5 channel currents by each compound, steady-state currents taken at the end of the depolarizing pulse of +50 mV were normalized to the control obtained in the absence of each compound
FIG. 1e is concentration-response curves showing the relative steady-state currents obtained at the end of the depolarizing pulse against the concentration of each compound. Data were fitted with a Hill equation.
IC50 values (50% inhibitory concentration, μM) of compounds 1˜14 on the hKv1.5 channel currents were determined, and Hill values were calculated from the concentration-response curves of the respective compounds using the Hill equation.

[2] = tested on: rabbit atrial tissue; assay: Frequency-dependent effects on action potentials of rabbit atrial tissue (APD90); type: cell-based; settings: varied stimulus frequencies, FIG. 5c; compared to chelidonine
Experimental: Action potentials in rabbit atrial tissue were recorded according to the method described in thesis by Kwak, et al. (A newly synthesized benzopyran derivatives, activates the cardiac ATP-sensitive K^+ channel. J Pharmacol Exp Ther 1995, 275: 807-812).
Male New Zealand white rabbits weighing about 2 kg were stunned with a blow on the head and hearts were rapidly excised and transferred to a dissection bath filled with Tyrode's solution saturated with 97% O2 and 3% CO2 gas mixture and each dissected tissue was mounted horizontally in a narrow channel of a tissue chamber and continuously superfused with the Tyrode's solution at 37° C. The action potentials were elicited by stimulating the cardiac cells with square pulses (1˜5 Hz, 1-ms duration, 20-30% above threshold voltage) by a stimulator. […] Tracings on the oscilloscope screen were photographed on a 35-mm film and also recorded on a physiograph (RS 3400, Gould, Cleveland, Ohio). APD90 was used for the comparison of action potential durations. APD90 represents the action potential duration at 90% repolarization, relative to the action potential duration at maximum 100% depolarization. Images on the oscilloscope screen were captured on Polaroid camera.
We tested whether the effect of chelidonine on action potentials of rabbit atrial myocytes are frequency-dependent or not.
The relative action potential durations were normalized to the APD90 value in the absence of chelidonine at each frequency. At the stimulus frequency of 1, 2, 3, 4 and 5 Hz, 1 μM chelidonine increased APD90 by 13.0±8.1% (n=5), 14.5±7.9% (n=5), 16.5±2.2% (n=5) 28.2±0.4% (n=5) or 33.0±0.3 1% (n=5) of the control APD90 in the absence of chelidonine at each frequency, respectively.

[3] = tested on: mouse; settings: in vivo, cited from earlier work

Hill value [1]	IC50 [1] [µM]	Compound	type of hKv1.5 block [1]	effect on the hKv1.5 channel currents [1]	action potential duration prolongation [2]	toxicity ([3]; iv) [mg/kg]	toxicity ([3]; sc) [mg/kg]
1.37	59.3 ± 3	CN1Cc2c(ccc3c2OCO3)[C@H]2[C@@H](OCc3ccccc3)Cc3cc4c(cc3[C@H]21)OCO4 [Compound 3, [5bR-(5bα,6β,12bα)]-5b,6,7,12b,13, 14-hexahydro-6-benzyloxy-13-methyl[1,3]benzodioxolo[5,6c]-1,3-dioxolo[4,5-i]phenanthridine]					
1.18	29.3 ± 4.2	CN1Cc2c(ccc3c2OCO3)[C@H]2[C@@H](OC(=O)c3ccccc3)Cc3cc4c(cc3[C@H]21)OCO4 [Compound 5, {[5bR-(5bα,6β,12bα)]-5b,6,7,12b,13, 14-hexahydro-13-methyl[1,3]benzodioxolo[5,6c]-1,3-dioxolo[4,5-i]phenanthridin-6-yl}-benzoate]	showed the tonic blocking effects	concentration-dependent inhibitory effects	increased the action potential durations in the similar manner as chelidonine, but to a lesser extent		
0.98	19.9 ± 3.5	CN1Cc2c(ccc3c2OCO3)C2=CCc3cc4c(cc3[C@H]21)OCO4 [Compound 7, (12bR)-7,12b,13,14-tetrahydro-13-methyl[1,3]-benzodioxolo[5,6c]-1,3-dioxolo[4,5-i]phenanthridine]					
1.20	31.3 ± 3.5	CN1Cc2c(ccc3c2OCO3)[C@H]2[C@@H](OS(C)(=O)=O)Cc3cc4c(cc3[C@H]21)OCO4 [Compound 10, {[5bR-(5bα,6β,12bα)]-5b,6,7,12b,13, 14-hexahydro-13-methyl[1,3]benzodioxolo[5,6c]-1,3-dioxolo[4,5-i]phenanthridin-6-yl}-methanesulfonate]					
1.19	29.6 ± 3.7	Cc1ccc(S(=O)(=O)O[C@H]2Cc3cc4c(cc3[C@@H]3[C@H]2c2ccc5c(c2CN3C)OCO5)OCO4)cc1 [Compound 11, {[5bR-(5bα,6β,12bα)]-5b,6,7,12b,13, 14-hexahydro-13-methyl[1,3]benzodioxolo[5,6c]-1,3-dioxolo[4,5-i]phenanthridin-6-yl}-4-methylbenzenesulfonate]					
1.12	1.9 ± 1	CN1Cc2c(ccc3c2OCO3)[C@H]2[C@@H](OC(N)=O)Cc3cc4c(cc3[C@H]21)OCO4 [Compound 12, {[5bR-(5bα,6β,12bα)]-5b,6,7,12b,13, 14-hexahydro-13-methyl[1,3]benzodioxolo[5,6c]-1,3-dioxolo[4,5-i]phenanthridin-6-yl}-carbamate]					
1.34		CN1Cc2c(ccc3c2OCO3)[C@@]2(C)[C@@H](O)Cc3cc4c(cc3[C@@H]12)OCO4 [Compound 13, [5bR-(5bα,6β,12bα)]-5b,6,7,12b,13, 14-hexahydro-5b,13-dimethyl[1,3]-benzodioxolo[5,6c]-1,3-dioxolo[4,5-i] phenanthridin-6-ol]					

Compound	Hill value [1]	IC50 [1] [µM]	type of hKv1.5 block [1]	effect on the hKv1.5 channel currents [1]	action potential duration prolongation [2]	toxicity ([3]; iv) [mg/kg]	toxicity ([3]; sc) [mg/kg]
CO[C@H]1Cc2cc3c(cc2[C@@H]2[C@H]1c1ccc4c(c1CN2C)OCO4)OCO3 [Compound 2, [5bR-(5bα,6β,12bα)]-5b,6,7,12b,13, 14-hexahydro-6-methoxy-13-methyl[1,3]-benzodioxolo[5,6c]-1,3-dioxolo[4,5-i]phenanthridine]	1.29	45.2 ± 4.1					
CC(=O)O[C@H]1Cc2cc3c(cc2[C@@H]2[C@H]1c1ccc4c(c1CN2C)OCO4)OCO3 [Compound 4, {[5bR-(5bα,6β,12bα)]-5b,6,7,12b,13, 14-hexahydro-13-methyl[1,3]benzodioxolo[5,6c]-1,3-dioxolo[4,5-i]phenanthridin-6-yl}-acetate]	1.34	11.3 ± 3.3	predominantly blocked the open ion channels	concentration-dependent inhibitory effects	increased the action potential durations in the similar manner as chelidonine, but to a lesser extent		
CN1Cc2c(ccc3c2OCO3)-c2ccc3cc4c(cc3c21)OCO4 [Compound 6, (12bR)-13,14-dihydro-13-methyl [1,3]benzodioxolo[5,6c]-1,3-dioxolo[4,5-i]phenanthridine]	1.09	26.4 ± 3.9					
CN1Cc2c(ccc3c2OCO3)[C@H]2CCc3cc4c(cc3[C@H]21)OCO4 [Compound 8, [5bR-(5bα,6β,12bα)]-5b,6,7,12b,13, 14-hexahydro-13-methyl[1,3] benzodioxolo[5,6c]-1,3-dioxolo[4,5-i]phenanthridine]	1.38	65.6 ± 4.2					
CN1Cc2c(ccc3c2OCO3)[C@H]2[C@@H](OP(=O)(Oc3ccccc3)Oc3ccccc3)Cc3cc4c(cc3[C@H]21)OCO4 [Compound 9, {[5bR-(5bα,6β,12bα)]-5b,6,7,12b,13, 14-hexahydro-13-methyl[1,3]benzodioxolo[5,6c]-1,3-dioxolo[4,5-i]phenanthridin-6-yl}-diphenylphosphate]	1.26						
C[n+]1cc2c3c(ccc2c2ccc4cc5c(cc4c21)OCO5)OCO3 [Compound 14, 13-methyl[1,3]benzodioxolo[5,6c]-1,3-dioxolo[4,5-i]phenanthridinium]	1.39	13 ± 3.8	slowed the channel activation	concentration-dependent inhibitory effects	increased the action potential durations in the similar manner as chelidonine, but to a lesser extent	15.9	102.0
